# According to patent publication US20260183297A1, “SELECTION OF PATIENTS FOR THE TREATMENT OF FADS1-MEDIATED DISEASES OR DISORDERS USING FADS-1 INHIBITORS” (AMGEN INC., priority 2022, published 2026):
# Marks after values point to notes of the source that are not given here.
# Columns and labels:
# [1] = Fatty acid concentration and composition of plasma lipid subfractions (GC) of Compound A-treated DIO mice; type: in vivo; settings: DIO mouse plasma, 30 mg/kg, mean
# [2] = system: liver, EPI WAT and ING WAT; experiment: RNA-Seq analysis of liver, EPI WAT and ING WAT; type: in vivo, mouse; settings: 30 mg/kg, 54 days
# Protocol: RNA was extracted by using the Qiagen RNeasy 96 Universal kit (QIAGEN, Germantown, MD). The concentration and quality of the isolated RNA samples were assessed and determined on an Agilent 4200 TapeStation system and had RNA integrity numbers more than 9.1. Adipose or liver RNA (250 ng) was used to prepare a cDNA library by using a protocol modified from the Illumina TruSeq Stranded mRNA kit (Illumina, San Diego CA). Briefly, after polyA^+ RNA selection, fragmentation, and priming, the fragmented RNA was transcribed to cDNA in the reaction of reverse transcription containing SuperScript™ II (Thermo Fisher Scientific—Invitrogen™, Waltham, MA) and RNase-out (Thermo Fisher Scientific—Invitrogen™, Waltham, MA) and, sequentially, the products of the first strand cDNA synthesis reaction were converted to double-stranded cDNAs and subjected to end repair, A-tailing, and adapter ligation by following the commercial instruction. The constructed libraries were amplified and barcoded using the PCR program: a denaturation step at 98° C. for 30 seconds, 15 cycles of 95° C. for 10 seconds, 60° C. for 30 seconds, and 72° C. for 30 seconds, and a 72° C. extension cycle for 5 minutes followed by a hold step at 4° C. Libraries were sequenced to a minimum depth of 30 million paired end reads on an Illumina HiSeq4000 with the 100 nt or 150 nt read length.
# RNA-Seq sequencing reads of the mouse samples were aligned and processed using OSA aligner, which is implemented in the OmicSoft Array Suite (QIAGEN OmicSoft, Cary, NC), based on mouse genome version GRCm38 and gene model GENCODE v19. Read count quantification was performed to the gene level based on OmicSoft implementation of RSEM. Downstream analysis using the read count output was performed following the standard RNA-seq workflow of DESeq2 R/Bioconductor package. Briefly, raw read count was transformed and nonnalized using the Variance Stabilizing Transformation (VST) method. Principal component analysis (PCA) was carried out by the plotPCA function using top 1000 variable genes. Differential expression analysis based on the negative binomial distribution was performed using the DESeq function.
# Gene expression was represented as normalized fragments per kilobase per million reads (FPKM). FPKM values were further normalized with a refinement of the commonly employed upper-quartile method that sets the FPKM to a value of 10 at the 70th percentile. Lowly expressed genes with fewer than five samples at FPKM≥1 were removed. Genes with Benjamini-Hochberg (BH)-adjusted P value <0.01 and fold change ≥2 or ≤0.5 were selected as DEGs. Volcano plots of differential expression analysis results were made using EnhancedVolcano R package (github.com/kevinblighe/EnhancedVolcano).
# The selected DEGs were annotated by IPA (QIAGEN, Redwood City, CA) on canonical pathways and toxicity lists. Gene expression enrichment in Gene Ontology (GO), KEGG was analyzed by using Cluster Profiler R package with default parameters. Deconvolution analysis was performed using MuSiC software v0.2.0 to estimate relative cell type abundance in each mouse bulk tissue samples. The Tabula Muris single-cell RNA-seq data set was used as a reference for MuSiC algorithm. The analysis was done separately for each tissue types including EPI and ING WAT, and liver.
# mouse FADS1 = target: T1, mouse FADS1 (Mus musculus, UniProt Q920L1); experiment: Mouse FADS1 cell-based assay; settings: in vitro; read-out: half-maximal inhibitory concentration (IC50) against mouse FADS1
# T1 sequence (Q920L1 1-447): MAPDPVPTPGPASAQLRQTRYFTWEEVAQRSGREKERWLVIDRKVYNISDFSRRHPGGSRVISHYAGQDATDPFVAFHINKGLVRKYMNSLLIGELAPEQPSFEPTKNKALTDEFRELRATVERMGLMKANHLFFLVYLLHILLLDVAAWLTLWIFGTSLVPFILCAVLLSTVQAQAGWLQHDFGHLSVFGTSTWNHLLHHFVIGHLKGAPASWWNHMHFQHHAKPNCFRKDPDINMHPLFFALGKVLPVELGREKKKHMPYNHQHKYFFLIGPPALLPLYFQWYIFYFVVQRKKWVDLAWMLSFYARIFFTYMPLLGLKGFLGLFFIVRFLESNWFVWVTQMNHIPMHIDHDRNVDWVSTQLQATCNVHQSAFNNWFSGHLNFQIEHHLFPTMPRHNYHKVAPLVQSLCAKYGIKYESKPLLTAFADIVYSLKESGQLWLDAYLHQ
# Protocol: HEK 293 cells in Dulbecco's Modified Eagle's medium (DMEM), 10% fetal bovine serum (FBS), 1× penicillin-streptomycin-glutamine (PSG) were mixed with FADS1 BacMam or FADS2 BacMam reagents at multiplicity of infection (MOI) ratio of 25 and plated in a in 96-well poly-D-lysine-coated plate. Plates were incubated in a 37° C., 5% CO2 for 24 hours. Cells were washed with DPBS and cells were incubated with […] of compound dilution in DPBS at 5% CO2, 37° C. for 20 minutes. Ten L of the substrate, ^13C5-DGLA (FADS1), or 13C-LA (FADS2) diluted in DPBS were added to the cells and incubated at 5% CO2, 37° C. for 30 minutes (FADS1) or 45 minutes (FADS2). Cells were then washed with DPBS and 50 μL of 2N NaOH were added to each well and incubated in a 65° C. oven for 1 hour for the saponification reaction. After cooling to room temperature, 22 μl of formic acid was added followed by the addition of 113 μl of acetonitrile with 1.5 μM ALA-d14 as the internal standard. Samples were then subjected to LC-MS/MS detection for the following analytes for the FADS1 reaction: ^13C5-DGLA and ^13C5-AA or the following analytes for the FADS2 reaction: ^13C18-LA, ^13C18-GLA, ^13C18-DGLA and ^13C18-AA. […]
# The analyte peak areas were quantified by using the Analyst software (SCIEX, Framingham, MA). The percent of substrate to product conversion relative to untreated control were calculated (percent of control [POC]). […]
compound,measurement,setting,value
"COc1ccn2c(=O)c(-c3cnn(CC(F)(F)C(F)(F)F)c3)c(C(F)(F)F)nc2c1 [Compound A, 8-methoxy-3-(1-(2,2,3,3,3-pentafluoropropyl)-1H-pyrazol-4-yl)-2-(trifluoromethyl)-4H-pyrido[1,2-a]pyrimidin-4-one]","C20:4n6 concentration, Cholesterol ester",[1]; Cholesterol ester,72.4*** μg mL^−1
same,"C16:1n7t concentration, Phospholipids",[1]; Phospholipids,1.2 µg/mL
same,"C16:1n7t concentration, Total",[1]; Total lipids,3.0 µg/mL
same,"C20:2n6 concentration, Total",[1]; Total lipids,9.9 µg/mL
same,"C24:0 concentration, Total",[1]; Total lipids,1.9 µg/mL
same,downregulated pathways (IPA) in the liver,[2]; Compound A-treated WT DIO mice,"downregulation of Acute Phase Response. AMPK Signaling, and Senescence pathways"
same,upregulated pathways (IPA) in the liver,[2]; Compound A-treated WT DIO mice,"upregulation of Calcium Signaling, PPARα/RXRα Activation, and Xenobiotic metabolism AHR Signaling pathways"
same,Insulin Receptor Signaling pathway (IPA) in EPI WAT,[2]; DIO mice,increased
same,"fatty acid oxidation-related genes (Cpt1a, Acox1, Acaa1a, Fgf21) in the liver",[2]; DIO mice,increased
same,"inflammation-related genes (Cc12, Cd14, Cd68) in ING WAT",[2]; DIO mice,decreased
same,"lipolysis (Lipe, Mg11, Pnpla2) and insulin-signaling genes (Insr, Irs1, Slc2a4) in EPI WAT",[2]; DIO mice,increased
same,cellular composition of EPI WAT (immune cell population),"[2]; DIO mice, relative to WT vehicle","decreases in T cells, B cells, and natural killer cells"
same,IC50,mouse FADS1,4 nM
